Data reported in US20120004246A1, “PURINYL DERIVATIVES AND THEIR USE AS POTASSIUM CHANNEL MODULATORS” (NeuroSearch A/S, priority 2007, published 2012).

Molecular target: T1, hSK3 channels (Homo sapiens, UniProt Q9UGI6)
T1 construct: expressed in transfected cells; host or cells: HEK293
Assay: whole-cell patch-clamp of SK3 current in HEK293 cells expressing hSK3 channels
Assay type: cell-based
Conditions: SK3 activation
Description: The ionic current through small-conductance Ca^2+-activated K^+ channels (SK channels, subtype 3) is recorded using the whole-cell configuration of the patch-clamp technique in a classic patch-clamp set-up using HEK293 tissue culture cells expressing hSK3 channels as described in e.g. WO 2006/100212.
The SC100 value determined is defined as the Stimulating Concentration required for increasing the baseline current by 100%. The below SC100 values are an indication of the SK3 activating properties of the compounds of the invention.

| SMILES | SC100 (Stimulating Concentration required for increasing the baseline current by 100%) [µM] |
| --- | --- |
| CCn1cnc2c(Nc3ccc(Cl)c(Cl)c3)nc(-n3nc(C)cc3C)nc21 [Compound 4.1, (3,4-Dichloro-phenyl)-[2-(3,5-dimethyl-pyrazol-1-yl)-9-ethyl-9H-purin-6-yl]-amine] | 0.04 |
| Cc1cc(C)n(-c2nc(Nc3ccc(F)c(F)c3)c3ncn(C)c3n2)n1 [Compound 6.1, (3,4-Difluoro-phenyl)-(2-(3,5-dimethyl-pyrazol-1-yl)-9-methyl-9H-purin-6-yl)-amine] | 0.02 |
